Measurements reported in ChEMBL document CHEMBL1201862, “PubChem BioAssay data set” (2004).
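A five-concentration, 48-hour dose response in 96-well plates underlies each endpoint, interpolated linearly between surrounding concentrations. GI50 is the concentration that inhibits growth by half.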 Calls of active or inactive are those of the source. Cut-off read from the data, not from the text of the source: active = GI50 up to about 1.1 µM and inactive = higher.

Assays:
Assay in all cases: NCI tumour cell line growth inhibition, 48 h
SW-620 = tested on: SW-620
SK-OV-3 = tested on: SK-OV-3
NCI-H522 = tested on: NCI-H522
OVCAR-8 = tested on: OVCAR-8
TK-10 = tested on: TK-10
HOP-62 = tested on: HOP-62
UO-31 = tested on: UO-31
HT-29 = tested on: HT-29
Malme-3M = tested on: Malme-3M
XF498 = tested on: XF498
CCRF-CEM = tested on: CCRF-CEM
DLD-1 = tested on: DLD-1
OVCAR-5 = tested on: OVCAR-5
DMS-114 = tested on: DMS-114
HL-60 = tested on: HL-60
HOP-18 = tested on: HOP-18
SN12C = tested on: SN12C
DU-145 = tested on: DU-145
MCF7 = tested on: MCF7
RXF 393 = tested on: RXF 393
A549 = tested on: A549
EKVX = tested on: EKVX
MDA-MB-435 = tested on: MDA-MB-435
SK-MEL-5 = tested on: SK-MEL-5
HCT-15 = tested on: HCT-15
MOLT-4 = tested on: MOLT-4
U-251 = tested on: U-251
MDA-N = tested on: MDA-N
HOP-92 = tested on: HOP-92
NCI-H460 = tested on: NCI-H460
NCI-H226 = tested on: NCI-H226
A498 = tested on: A498
COLO 205 = tested on: COLO 205
IGROV-1 = tested on: IGROV-1
BT-549 = tested on: BT-549
SNB-75 = tested on: SNB-75
LXFL 529 = tested on: LXFL 529
SNB-19 = tested on: SNB-19
M19-MEL = tested on: M19-MEL
ACHN = tested on: ACHN
PC-3 = tested on: PC-3
NCI-H23 = tested on: NCI-H23
786-0 = tested on: 786-0
DMS-273 = tested on: DMS-273
K562 = tested on: K562
CAKI-1 = tested on: CAKI-1
SK-MEL-28 = tested on: SK-MEL-28
OVCAR-4 = tested on: OVCAR-4
UACC-257 = tested on: UACC-257
KM12 = tested on: KM12
LOX IMVI = tested on: LOX IMVI
KM-20L2 = tested on: KM-20L2
HCC 2998 = tested on: HCC 2998
M14 = tested on: M14
SF-539 = tested on: SF-539
RPMI-8226 = tested on: RPMI-8226
SR = tested on: SR
NCI/ADR-RES = tested on: NCI/ADR-RES
SF-295 = tested on: SF-295
HCT-116 = tested on: HCT-116
OVCAR-3 = tested on: OVCAR-3
T47D = tested on: T47D
SK-MEL-2 = tested on: SK-MEL-2
SNB-78 = tested on: SNB-78
SF-268 = tested on: SF-268
UACC-62 = tested on: UACC-62
Hs-578T = tested on: Hs-578T

Measured: GI50

Clc1cccc(N2CCN(CCN3CCc4c([nH]c5ccccc45)C3c3cccnc3)CC2)c1 (centres undefined)
8.81 µM: HCT-15
inactive: SW-620 > 64.6 µM | SK-OV-3 > 100 µM | NCI-H522 65.5 µM | OVCAR-8 > 61.9 µM | TK-10 > 100 µM | HOP-62 > 45.6 µM | UO-31 > 100 µM | HT-29 37 µM | Malme-3M > 66.8 µM | XF498 40.3 µM | CCRF-CEM > 40.4 µM | DLD-1 39.4 µM | OVCAR-5 > 57.3 µM | DMS-114 73.5 µM | HL-60 26.3 µM | HOP-18 > 100 µM | SN12C 43.6 µM | DU-145 > 31.6 µM | MCF7 19.2 µM | RXF 393 > 100 µM | A549 > 94.6 µM | EKVX 14.5 µM | MDA-MB-435 > 100 µM | SK-MEL-5 97.7 µM | MOLT-4 > 71.6 µM | U-251 64.4 µM | MDA-N > 100 µM | HOP-92 > 52.5 µM | NCI-H460 8.75 µM | NCI-H226 > 37.3 µM | A498 > 100 µM | COLO 205 > 33.7 µM | IGROV-1 9.59 µM | BT-549 > 100 µM | SNB-75 18.8 µM | LXFL 529 63.7 µM | SNB-19 > 100 µM | M19-MEL > 100 µM | ACHN > 100 µM | PC-3 > 86.7 µM | NCI-H23 78.5 µM | 786-0 29.8 µM | DMS-273 37.9 µM | K562 10.9 µM | CAKI-1 > 100 µM | SK-MEL-28 > 100 µM | OVCAR-4 31.4 µM | UACC-257 > 77.4 µM | KM12 8.05 µM | LOX IMVI > 50.2 µM | KM-20L2 24 µM | HCC 2998 22.5 µM | M14 > 79.4 µM | SF-539 33.5 µM | RPMI-8226 30.6 µM | SR 25.7 µM | NCI/ADR-RES > 100 µM | SF-295 69 µM | HCT-116 31.8 µM | OVCAR-3 58.5 µM | T47D 9.38 µM | SK-MEL-2 61 µM | SNB-78 > 100 µM | SF-268 > 100 µM | UACC-62 > 70 µM | Hs-578T > 68.9 µM

CC(C)(C)[Si](C)(C)O/N=C\c1cccc(O[Si](C)(C)C(C)(C)C)c1
inactive: SW-620 18.5 µM | SK-OV-3 21 µM | OVCAR-8 20 µM | TK-10 24.5 µM | HOP-62 22.8 µM | UO-31 15.6 µM | HT-29 16.5 µM | Malme-3M 42.4 µM | XF498 18.5 µM | CCRF-CEM 19.3 µM | DLD-1 17.8 µM | OVCAR-5 20.1 µM | DMS-114 18.8 µM | HL-60 18.3 µM | HOP-18 22.5 µM | SN12C 19.9 µM | RXF 393 19.6 µM | A549 17.8 µM | EKVX 18.5 µM | SK-MEL-5 17.8 µM | MOLT-4 18.1 µM | U-251 17.5 µM | HOP-92 15.5 µM | NCI-H460 17.7 µM | COLO 205 17.8 µM | IGROV-1 18.6 µM | SNB-75 16.7 µM | LXFL 529 15.7 µM | SNB-19 20.7 µM | M19-MEL 17.8 µM | ACHN 17.9 µM | 786-0 19.2 µM | DMS-273 17.7 µM | K562 18.1 µM | CAKI-1 24.8 µM | OVCAR-4 16.1 µM | UACC-257 21.9 µM | KM12 18 µM | LOX IMVI 19.2 µM | KM-20L2 20.1 µM | HCC 2998 18.3 µM | M14 16 µM | SF-539 21.9 µM | RPMI-8226 17 µM | SF-295 18 µM | HCT-116 18.6 µM | OVCAR-3 16.2 µM | SK-MEL-2 17.9 µM | SNB-78 15.7 µM | SF-268 18.3 µM | UACC-62 16.7 µM
19.2 µM: HCT-15
